PMC12580772, “A First-in-Human Study of ATM Inhibitor Lartesertib as Monotherapy in Patients with Advanced Solid Tumors” (Clinical Cancer Research, 2025)

System: patients with advanced solid tumors
Assay: Phase I dose escalation: safety, tolerability, DLTs and MTD
Assay type: in vivo
Protocol: DDRiver Solid Tumors 410 was an open-label, first-in-human, multicenter, phase I study of lartesertib monotherapy, continuously administered once daily, conducted at three study sites in the United States and Canada. Part 1A was a lartesertib monotherapy dose-escalation study designed to evaluate the safety, tolerability, pharmacokinetics (PK), pharmacodynamics (PD), and early signs of efficacy in patients with advanced solid tumors. Patients were treated with lartesertib at increasing dose levels (DLs) ranging from 100 to 400 mg once daily. Each DL included a dose-limiting toxicity (DLT) observation period of 21 days; treatment was continued until disease progression, death, consent withdrawal, unacceptable toxicity, or the end of the study. Additional details are provided under Study Design in the Supplementary Material S1.
The primary endpoints were the occurrence of DLTs, adverse events (AE), and treatment-related and treatment-emergent AEs (TEAE), along with the occurrence of clinically significant changes in vital signs, laboratory parameters, and 12-lead electrocardiogram findings. The secondary endpoints included PK parameters of lartesertib in plasma after single and multiple doses; establishment of the recommended dose for expansion based on safety, PK, and PD data; absolute and relative changes overtime from baseline in ATM pathway readouts assessed by flow cytometry and immunohistochemistry; and objective response, duration of response, and progression-free survival (PFS) according to the RECIST version 1.1, as assessed by the investigator. Exploratory endpoints included the correlation of baseline and on-treatment biomarkers with response to lartesertib treatment as well as relative changes in total blood cell count, immune cells, and circulatory factors during exposure to lartesertib.
The DLT analysis set included all patients who received ≥80% of the planned cumulative dose during the DLT period (Period 1) and had completed the DLT period, or patients who experienced ≥1 DLT during the DLT period, regardless of the number of lartesertib doses administered. Additional details on all analysis sets are provided in the Supplementary Material S1. Analyses to determine dose escalation were performed on the DLT analysis set and were based on available safety and PK data. A Bayesian two-parameter logistic regression model (BLRM) was applied to assist the safety monitoring committee in dose recommendations during lartesertib dose escalation. For the determination of the MTD, posterior probabilities (2.5%, 25%, 50%, 75%, and 97.5% quantiles) for DLT rates at selected doses were estimated by a BLRM. The target toxicity of the model for MTD was set at 30%.
AEs and diseases were coded according to the Medical Dictionary for Regulatory Activities (RRID: SCR_003751) version 25.1 (until 30 days after the last study treatment). The severity of AEs was graded using the NCI Common Terminology Criteria for Adverse Events (RRID: SCR_010296) version 5.0.
Part 1A was a lartesertib monotherapy dose-escalation designed to determine the safety, tolerability, pharmacokinetics (PK), pharmacodynamics (PD), and early signs of efficacy in participants with solid tumors. For each patient, the study included a Screening period lasting up to 28 days and the estimated total duration in the study was an approximate of 105 days/15 weeks. Patients were treated with lartesertib orally as a tablet, at doses ranging from 100 to 400 mg once daily (QD) under a fasting condition of 2 hours pre-dose to 1-hour post-dose in general, and 2 hours pre-dose to 4 hours post-dose on days where PK-time matched triplicate ECG were collected. Patients were treated until disease progression, death, adverse events (AEs) leading to discontinuation of study intervention(s), or withdrawal of consent, whichever occurred first, or end of study. […]

COc1cc2ncc3c(c2cc1-c1cn(C)nc1C)n(-c1c(F)cncc1OC)c(=O)n3C [lartesertib]
Any TEAE leading to death (100 mg n = 2): 0 (0.0) n (%)
Any lartesertib-related TEAE leading to death (100 mg n = 2): 0 (0.0) n (%)
TEAE: Urinary tract infection (100 mg n = 2): 0 (0.0) n (%)
Any TEAE leading to death (200 mg n = 7): 0 (0.0) n (%)
Any lartesertib-related TEAE leading to death (200 mg n = 7): 0 (0.0) n (%)
TEAE: Urinary tract infection (200 mg n = 7): 1 (14.3) n (%)
Any TEAE leading to death (300 mg n = 9): 0 (0.0) n (%)
Any lartesertib-related TEAE leading to death (300 mg n = 9): 0 (0.0) n (%)
TEAE: Urinary tract infection (300 mg n = 9): 1 (11.1) n (%)
Any TEAE leading to death (400 mg n = 4): 0 (0.0) n (%)
Any lartesertib-related TEAE leading to death (400 mg n = 4): 0 (0.0) n (%)
TEAE: Urinary tract infection (400 mg n = 4): 2 (50.0) n (%)
Any TEAE leading to death (Total N = 22): 0 (0.0) n (%)
Any lartesertib-related TEAE leading to death (Total N = 22): 0 (0.0) n (%)
TEAE: Urinary tract infection (Total N = 22): 4 (18.2) n (%)
Abdominal pain, Grade ≥3 (human, in vivo): 1 (4.5) n (%)
Abdominal pain, Grade ≥4 (human, in vivo): 0 (0.0) n (%)
Abdominal pain, Grade ≥5 (human, in vivo): 0 (0.0) n (%)
Alanine aminotransferase increased, Grade ≥3 (human, in vivo): 2 (9.2) n (%)
Alanine aminotransferase increased, Grade ≥4 (human, in vivo): 0 (0.0) n (%)
Alanine aminotransferase increased, Grade ≥5 (human, in vivo): 0 (0.0) n (%)
Anemia, Grade ≥3 (human, in vivo): 4 (18.2) n (%)
Anemia, Grade ≥4 (human, in vivo): 0 (0.0) n (%)
Anemia, Grade ≥5 (human, in vivo): 0 (0.0) n (%)
Any AESI cytopenia (human, in vivo): 4 (18.2) n (%)
Any AESI cytopenia, Grade ≥3 (all anemia events) (human, in vivo): 4 (18.2) n (%)
Any TEAE (human, in vivo): 22 (100.0) n (%)
Any TEAE leading to permanent treatment discontinuation (human, in vivo): 5 (22.7) n (%)
Any TEAE leading to temporary treatment discontinuation (human, in vivo): 5 (22.7) n (%)
Any TEAE, Grade ≥3 (human, in vivo): 13 (59.1) n (%)
Any TEAE, Grade ≥4 (human, in vivo): 1 (4.5) n (%)
Any lartesertib-related TEAE (human, in vivo): 15 (68.2) n (%)
Any lartesertib-related TEAE, Grade ≥3 (human, in vivo): 4 (18.2) n (%)
Any lartesertib-related TEAE, Grade ≥4 (human, in vivo): 1 (4.5) n (%)
Any lartesertib-related serious TEAE (human, in vivo): 2 (9.1) n (%)
Any serious TEAE (human, in vivo): 9 (40.9) n (%)
Aspartate aminotransferase increased, Grade ≥3 (human, in vivo): 3 (13.6) n (%)
Aspartate aminotransferase increased, Grade ≥4 (human, in vivo): 0 (0.0) n (%)
Aspartate aminotransferase increased, Grade ≥5 (human, in vivo): 0 (0.0) n (%)
Blood alkaline phosphatase increased, Grade ≥3 (human, in vivo): 1 (4.5) n (%)
Blood alkaline phosphatase increased, Grade ≥4 (human, in vivo): 0 (0.0) n (%)
Blood alkaline phosphatase increased, Grade ≥5 (human, in vivo): 0 (0.0) n (%)
Blood and lymphatic system disorders, Grade ≥3 (human, in vivo): 4 (18.2) n (%)
Blood and lymphatic system disorders, Grade ≥4 (human, in vivo): 0 (0.0) n (%)
Blood and lymphatic system disorders, Grade ≥5 (human, in vivo): 0 (0.0) n (%)
Blood bilirubin increased, Grade ≥3 (human, in vivo): 1 (4.5) n (%)
Blood bilirubin increased, Grade ≥4 (human, in vivo): 0 (0.0) n (%)
Blood bilirubin increased, Grade ≥5 (human, in vivo): 0 (0.0) n (%)
Decreased appetite, Grade ≥3 (human, in vivo): 1 (4.5) n (%)
Decreased appetite, Grade ≥4 (human, in vivo): 0 (0.0) n (%)
Decreased appetite, Grade ≥5 (human, in vivo): 0 (0.0) n (%)
Decreased neutrophil count, grade 1 or 2 (human, in vivo): 4.5%
Decreased platelet count, grade 1 or 2 (human, in vivo): 4.5%
Decreased white blood cell count, grade 1 or 2 (human, in vivo): 4.5%
Dehydration, Grade ≥3 (human, in vivo): 1 (4.5) n (%)
Dehydration, Grade ≥4 (human, in vivo): 0 (0.0) n (%)
Dehydration, Grade ≥5 (human, in vivo): 0 (0.0) n (%)
Gamma-glutamyltransferase increased, Grade ≥3 (human, in vivo): 1 (4.5) n (%)
Gamma-glutamyltransferase increased, Grade ≥4 (human, in vivo): 0 (0.0) n (%)
Gamma-glutamyltransferase increased, Grade ≥5 (human, in vivo): 0 (0.0) n (%)
Gastrointestinal disorders, Grade ≥3 (human, in vivo): 3 (13.6) n (%)
Gastrointestinal disorders, Grade ≥4 (human, in vivo): 0 (0.0) n (%)
Gastrointestinal disorders, Grade ≥5 (human, in vivo): 0 (0.0) n (%)
Grade ≥3 anemia (human, in vivo): 18.2%
Grade ≥3 decreased lymphocyte count (human, in vivo): 13.6%
Grade ≥3 increased aspartate aminotransferase (human, in vivo): 13.6%
Grade ≥3 maculopapular rash (human, in vivo): 13.6%
Immune system disorders, Grade ≥3 (human, in vivo): 1 (4.5) n (%)
Immune system disorders, Grade ≥4 (human, in vivo): 1 (4.5) n (%)
Immune system disorders, Grade ≥5 (human, in vivo): 0 (0.0) n (%)
Investigations, Grade ≥3 (human, in vivo): 6 (27.3) n (%)
Investigations, Grade ≥4 (human, in vivo): 0 (0.0) n (%)
Investigations, Grade ≥5 (human, in vivo): 0 (0.0) n (%)
Lartesertib-related TEAE: Aspartate aminotransferase increased (human, in vivo): 3 (13.6) n (%)
Lartesertib-related TEAE: Blood creatinine increased (human, in vivo): 3 (13.6) n (%)
Lartesertib-related TEAE: Diarrhea (human, in vivo): 4 (18.2) n (%)
Lartesertib-related TEAE: Headache (human, in vivo): 3 (13.6) n (%)
Lartesertib-related TEAE: Maculopapular rash (human, in vivo): 5 (22.7) n (%)
Lartesertib-related TEAE: Nausea (human, in vivo): 5 (22.7) n (%)
Lartesertib-related TEAE: Pyrexia (human, in vivo): 6 (27.3) n (%)
Lymphocyte count decreased, Grade ≥3 (human, in vivo): 3 (13.6) n (%)
Lymphocyte count decreased, Grade ≥4 (human, in vivo): 0 (0.0) n (%)
Lymphocyte count decreased, Grade ≥5 (human, in vivo): 0 (0.0) n (%)
Maculopapular rash, Grade ≥3 (human, in vivo): 3 (13.6) n (%)
Maculopapular rash, Grade ≥4 (human, in vivo): 0 (0.0) n (%)
Maculopapular rash, Grade ≥5 (human, in vivo): 0 (0.0) n (%)
Metabolism and nutrition disorders, Grade ≥3 (human, in vivo): 1 (4.5) n (%)
Metabolism and nutrition disorders, Grade ≥4 (human, in vivo): 0 (0.0) n (%)
Metabolism and nutrition disorders, Grade ≥5 (human, in vivo): 0 (0.0) n (%)
Nausea, Grade ≥3 (human, in vivo): 2 (9.1) n (%)
Nausea, Grade ≥4 (human, in vivo): 0 (0.0) n (%)
Nausea, Grade ≥5 (human, in vivo): 0 (0.0) n (%)
Patients with at least one TEAE (human, in vivo): 100%
Patients with at least one lartesertib-related TEAE (human, in vivo): 68.2%
Patients with lartesertib-related grade 3 TEAEs (human, in vivo): 18.2%
Patients with serious TEAEs (human, in vivo): 40.9%
Serious TEAE maculopapular rash (human, in vivo): 9.1%
Serious TEAE nausea (human, in vivo): 9.1%
Skin and subcutaneous tissue disorders, Grade ≥3 (human, in vivo): 3 (13.6) n (%)
Skin and subcutaneous tissue disorders, Grade ≥4 (human, in vivo): 0 (0.0) n (%)
Skin and subcutaneous tissue disorders, Grade ≥5 (human, in vivo): 0 (0.0) n (%)
TEAE fatigue (human, in vivo): 40.9%
TEAE increased blood creatinine (human, in vivo): 27.3%
TEAE nausea (human, in vivo): 27.3%
TEAE pyrexia (human, in vivo): 36.4%
TEAE: Abdominal pain (human, in vivo): 4 (18.2) n (%)
TEAE: Alanine aminotransferase increased (human, in vivo): 4 (18.2) n (%)
TEAE: Anemia (human, in vivo): 4 (18.2) n (%)
TEAE: Aspartate aminotransferase increased (human, in vivo): 4 (18.2) n (%)
TEAE: Blood bilirubin increased (human, in vivo): 3 (13.6) n (%)
TEAE: Blood creatinine increased (human, in vivo): 6 (27.3) n (%)
TEAE: Decreased appetite (human, in vivo): 3 (13.6) n (%)
TEAE: Diarrhea (human, in vivo): 4 (18.2) n (%)
TEAE: Fatigue (human, in vivo): 9 (40.9) n (%)
TEAE: Headache (human, in vivo): 3 (13.6) n (%)
TEAE: Lymphocyte count decreased (human, in vivo): 3 (13.6) n (%)
TEAE: Maculopapular rash (human, in vivo): 5 (22.7) n (%)
TEAE: Nausea (human, in vivo): 6 (27.3) n (%)
TEAE: Pyrexia (human, in vivo): 8 (36.4) n (%)
TEAE: Vomiting (human, in vivo): 5 (22.7) n (%)
TEAEs, subjects with at least one event, Grade ≥3 (human, in vivo): 13 (59.1) n (%)
TEAEs, subjects with at least one event, Grade ≥4 (human, in vivo): 1 (4.5) n (%)
TEAEs, subjects with at least one event, Grade ≥5 (human, in vivo): 0 (0.0) n (%)
Vomiting, Grade ≥3 (human, in vivo): 1 (4.5) n (%)
Vomiting, Grade ≥4 (human, in vivo): 0 (0.0) n (%)
Vomiting, Grade ≥5 (human, in vivo): 0 (0.0) n (%)
Changes in vital signs and triplicate electrocardiogram values (in vivo): No clinically meaningful changes
Patients with ≥1 treatment-related adverse events of grade ≥3 (in vivo): Five patients
Maximum tolerated dose (MTD) (oral, continuous once daily monotherapy, suggested by BLRM): 300 mg once daily
TEAEs leading to death (study period): No TEAEs led to death
